These results are taken from PubChem BioAssay (NCI).

Some test systems named below: A498 renal; HCC-2998 colon; HCT-15 colon; HOP-92 NSCLC; HT29 colon; IGROV1 ovarian; K-562 leukemia; KM12 colon; M14 melanoma; MDA-MB-435; MOLT-4 leukemia; NCI-H522 lung; OVCAR-5 ovarian; RPMI-8226 leukemia; SF-295 CNS; SF-539 CNS; TK-10 renal.
Assay in all cases: NCI tumour cell line growth inhibition, 48 h

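Results reflect a 48-hour exposure of cells in 96-well plates to compound at five concentrations. Definition used: TGI = concentration required for complete inhibition of growth.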 A value given as a limit tells only on which side of the number the result lay.

For `O=C1C=C(NCCc2cc(Br)c(O)c(Br)c2)C(=O)c2ncccc21`, the TGI in the assay with A498 renal came to 6.78 µM; in the assay on HCC-2998 colon it was 18.5 µM; in the assay with HCT-15 colon it was 18.2 µM; in the assay with HOP-92 NSCLC, 25.6 µM; in the assay on HT29 colon it was 7.36 µM; with IGROV1 ovarian, 6.31 µM. The TGI in the assay on K-562 leukemia was 10 µM; in the assay on KM12 colon, 23.4 µM; in the assay on M14 melanoma, 2700 nM; in the assay on MDA-MB-435, 723 nM; in the assay on MOLT-4 leukemia, 21.9 µM; in the assay on NCI-H522 lung it was 6.1 µM. In addition, the TGI with OVCAR-5 ovarian was 3.95 µM; with RPMI-8226 leukemia, 18.3 µM; in the assay with SF-295 CNS it was 2790 nM; in the assay with SF-539 CNS, 2.52 µM; in the assay with TK-10 renal, 13.8 µM.
Turning to `CCOC(=O)CCC(NC(=O)Cc1ccc(Oc2nc3ccccc3nc2-c2cccs2)cc1)C(=O)OCC` (centres undefined), the TGI was 84.1 µM in the assay on A498 renal; above 100 µM in the assay with HCC-2998 colon; above 100 µM in the assay with HCT-15 colon; 47.7 µM with HOP-92 NSCLC; above 100 µM with HT29 colon; above 100 µM with IGROV1 ovarian. In addition, the TGI with K-562 leukemia is above 100 µM; with KM12 colon it was above 100 µM; with M14 melanoma, above 100000 nM; with MDA-MB-435 it was above 100000 nM; with MOLT-4 leukemia, above 100 µM; in the assay on NCI-H522 lung it was above 100 µM. In addition, the TGI in the assay on OVCAR-5 ovarian is above 100 µM; with RPMI-8226 leukemia, above 100 µM; with SF-295 CNS it was above 100000 nM; in the assay with SF-539 CNS, 26.3 µM; in the assay with TK-10 renal it was 69.2 µM.
